Experimental data taken from patent US20130252816A1, “HERBICIDAL COMPOSITION AND USE THEREOF” (Syngenta Crop Protection LLC, priority 2010, published 2013).

Assays:
Assay type in all cases: in vivo
Poa annua [1] = test: Example 2: alcohol ethoxylate adjuvants without glyphosate, visual % damage, tracksprayer 300 l/ha
Excerpt: (§1) The effect of different types of alcohol ethoxylate (branched—Genapol X-series, and unbranched—Genapol O-series, differing degrees of ethoxylation, see Table 3 below for more details), on unwanted vegetation (broadleaf weed and grass species), in the absence of glyphosate, was investigated and compared to untreated (water only) control weeds.
(§2) Troughs (measuring 16 cm by 13 cm by 5 cm) were filled with local field soil. Seeds of Veronica persica, Stellaria media, Trifolium repens and Poa annua were sown 24 days before application of test samples. Plants were grown in the glasshouse at 18 to 20° C. and 60% relative humidity. Application of alcohol ethoxylate test samples was carried out using a tracksprayer, spraying at a rate of 300 l/ha. Plants were kept in glasshouse and visual assessment of the estimated percentage damage to the plant was carried out 1, 7, and 14 days from application.
(§3) Damage was assessed as wilting, desiccation or any other kind of visual injury in comparison to the untreated control (water only).

Stellaria media [2] = test: as above
Excerpt: as §1, §2, §3

Veronica persica = test: as above
Excerpt: as §1, §2, §3

Trifolium repens = test: as above
Excerpt: as §1, §2, §3

Poa annua [3] = test: Example 1: adjuvants alone, visual % damage, pots in glasshouse
Description: (§4) The effect of different adjuvants (see Table 1 below) on the growth of broadleaf weed and grass species was investigated and compared to untreated (water only) control weeds.
(§5) Plates, each with 48 pots measuring 2.7 cm diameter and 5 cm deep, were filled with TKS1 growing media (Floragard, Germany). Seeds of Taraxacum officinale, Stellaria media or Poa annua were sown on the surface (10 to 20 per pot). Plants were grown in glasshouse at a temperature of 18 to 20° C. and at 60% relative humidity.
(§6) Plants were treated 15 (Stellaria, Poa) and 34 (Taraxacum) days after sowing with 60 μl of a 1.25, 2.5, 5 and 10% (w/v) solution of adjuvant using a hand airbrush.
(§7) Visual assessment of the percentage damage to the plant was carried out 1 day and 6 days from application.
as §3

Stellaria media [4] = test: as above
Description: as §4, §5, §6, §7, §3

Taraxacum officinale = test: as above
Description: as §4, §5, §6, §7, §3

## Iso-tridecyl alcohol polyglycol ether with 2 moles of ethoxylation [GenapolX020]
Poa annua [1]; adjuvant 1% w/v
  mean % damage 1 daa Poa annua: 0%
  mean % damage 7 daa Poa annua: 0%
  mean % damage 14 daa Poa annua: 0%
Poa annua [1]; adjuvant 1.5% w/v
  mean % damage 1 daa Poa annua: 0%
  mean % damage 7 daa Poa annua: 5%
  mean % damage 14 daa Poa annua: 0%
Poa annua [1]; adjuvant 2% w/v
  mean % damage 1 daa Poa annua: 0%
  mean % damage 7 daa Poa annua: 5%
  mean % damage 14 daa Poa annua: 0%
Poa annua [1]; adjuvant 2.5% w/v
  mean % damage 1 daa Poa annua: 0%
  mean % damage 7 daa Poa annua: 5%
  mean % damage 14 daa Poa annua: 0%
Stellaria media [2]; adjuvant 1% w/v
  mean % damage 1 daa Stellaria media: 0%
  mean % damage 7 daa Stellaria media: 0%
  mean % damage 14 daa Stellaria media: 0%
Stellaria media [2]; adjuvant 1.5% w/v
  mean % damage 1 daa Stellaria media: 0%
  mean % damage 7 daa Stellaria media: 0%
  mean % damage 14 daa Stellaria media: 0%
Stellaria media [2]; adjuvant 2% w/v
  mean % damage 1 daa Stellaria media: 0%
  mean % damage 7 daa Stellaria media: 5%
  mean % damage 14 daa Stellaria media: 5%
Stellaria media [2]; adjuvant 2.5% w/v
  mean % damage 1 daa Stellaria media: 0%
  mean % damage 7 daa Stellaria media: 5%
  mean % damage 14 daa Stellaria media: 0%
Veronica persica; adjuvant 1% w/v
  mean % damage 1 daa Veronica persica: 0%
  mean % damage 7 daa Veronica persica: 0%
  mean % damage 14 daa Veronica persica: 0%
Veronica persica; adjuvant 1.5% w/v
  mean % damage 1 daa Veronica persica: 0%
  mean % damage 7 daa Veronica persica: 0%
  mean % damage 14 daa Veronica persica: 0%
Veronica persica; adjuvant 2% w/v
  mean % damage 1 daa Veronica persica: 5%
  mean % damage 7 daa Veronica persica: 5%
  mean % damage 14 daa Veronica persica: 5%
Veronica persica; adjuvant 2.5% w/v
  mean % damage 1 daa Veronica persica: 5%
  mean % damage 7 daa Veronica persica: 5%
  mean % damage 14 daa Veronica persica: 5%
Trifolium repens; adjuvant 1% w/v
  mean % damage 1 daa Trifolium repens: 0%
  mean % damage 7 daa Trifolium repens: 0%
  mean % damage 14 daa Trifolium repens: 0%
Trifolium repens; adjuvant 1.5% w/v
  mean % damage 1 daa Trifolium repens: 5%
  mean % damage 7 daa Trifolium repens: 5%
  mean % damage 14 daa Trifolium repens: 0%
Trifolium repens; adjuvant 2% w/v
  mean % damage 1 daa Trifolium repens: 10%
  mean % damage 7 daa Trifolium repens: 5%
  mean % damage 14 daa Trifolium repens: 0%
Trifolium repens; adjuvant 2.5% w/v
  mean % damage 1 daa Trifolium repens: 10%
  mean % damage 7 daa Trifolium repens: 5%
  mean % damage 14 daa Trifolium repens: 10%

## Oleyl alcohol polyglycol ether with 2 moles of ethoxylation [GenapolO020]
Poa annua [1]; adjuvant 1% w/v
  mean % damage 1 daa Poa annua: 0%
  mean % damage 7 daa Poa annua: 0%
  mean % damage 14 daa Poa annua: 0%
Poa annua [1]; adjuvant 1.5% w/v
  mean % damage 1 daa Poa annua: 0%
  mean % damage 7 daa Poa annua: 0%
  mean % damage 14 daa Poa annua: 0%
Poa annua [1]; adjuvant 2% w/v
  mean % damage 1 daa Poa annua: 0%
  mean % damage 7 daa Poa annua: 0%
  mean % damage 14 daa Poa annua: 0%
Poa annua [1]; adjuvant 2.5% w/v
  mean % damage 1 daa Poa annua: 0%
  mean % damage 7 daa Poa annua: 0%
  mean % damage 14 daa Poa annua: 0%
Stellaria media [2]; adjuvant 1% w/v
  mean % damage 1 daa Stellaria media: 0%
  mean % damage 7 daa Stellaria media: 0%
  mean % damage 14 daa Stellaria media: 0%
Stellaria media [2]; adjuvant 1.5% w/v
  mean % damage 1 daa Stellaria media: 0%
  mean % damage 7 daa Stellaria media: 0%
  mean % damage 14 daa Stellaria media: 0%
Stellaria media [2]; adjuvant 2% w/v
  mean % damage 1 daa Stellaria media: 0%
  mean % damage 7 daa Stellaria media: 0%
  mean % damage 14 daa Stellaria media: 0%
Stellaria media [2]; adjuvant 2.5% w/v
  mean % damage 1 daa Stellaria media: 0%
  mean % damage 7 daa Stellaria media: 5%
  mean % damage 14 daa Stellaria media: 0%
Veronica persica; adjuvant 1% w/v
  mean % damage 1 daa Veronica persica: 0%
  mean % damage 7 daa Veronica persica: 0%
  mean % damage 14 daa Veronica persica: 0%
Veronica persica; adjuvant 1.5% w/v
  mean % damage 1 daa Veronica persica: 0%
  mean % damage 7 daa Veronica persica: 0%
  mean % damage 14 daa Veronica persica: 0%
Veronica persica; adjuvant 2% w/v
  mean % damage 1 daa Veronica persica: 0%
  mean % damage 7 daa Veronica persica: 0%
  mean % damage 14 daa Veronica persica: 0%
Veronica persica; adjuvant 2.5% w/v
  mean % damage 1 daa Veronica persica: 0%
  mean % damage 7 daa Veronica persica: 0%
  mean % damage 14 daa Veronica persica: 0%
Trifolium repens; adjuvant 1% w/v
  mean % damage 1 daa Trifolium repens: 0%
  mean % damage 7 daa Trifolium repens: 0%
  mean % damage 14 daa Trifolium repens: 0%
Trifolium repens; adjuvant 1.5% w/v
  mean % damage 1 daa Trifolium repens: 0%
  mean % damage 7 daa Trifolium repens: 0%
  mean % damage 14 daa Trifolium repens: 0%
Trifolium repens; adjuvant 2% w/v
  mean % damage 1 daa Trifolium repens: 0%
  mean % damage 7 daa Trifolium repens: 0%
  mean % damage 14 daa Trifolium repens: 0%
Trifolium repens; adjuvant 2.5% w/v
  mean % damage 1 daa Trifolium repens: 0%
  mean % damage 7 daa Trifolium repens: 10%
  mean % damage 14 daa Trifolium repens: 0%

## Oleyl alcohol polyglycol ether with 8 moles of ethoxylation [GenapolO080]
Poa annua [1]; adjuvant 1% w/v
  mean % damage 1 daa Poa annua: 0%
  mean % damage 7 daa Poa annua: 5%
  mean % damage 14 daa Poa annua: 0%
Poa annua [1]; adjuvant 1.5% w/v
  mean % damage 1 daa Poa annua: 0%
  mean % damage 7 daa Poa annua: 5%
  mean % damage 14 daa Poa annua: 0%
Poa annua [1]; adjuvant 2% w/v
  mean % damage 1 daa Poa annua: 0%
  mean % damage 7 daa Poa annua: 5%
  mean % damage 14 daa Poa annua: 0%
Poa annua [1]; adjuvant 2.5% w/v
  mean % damage 1 daa Poa annua: 0%
  mean % damage 7 daa Poa annua: 5%
  mean % damage 14 daa Poa annua: 0%
Stellaria media [2]; adjuvant 1% w/v
  mean % damage 1 daa Stellaria media: 0%
  mean % damage 7 daa Stellaria media: 0%
  mean % damage 14 daa Stellaria media: 0%
Stellaria media [2]; adjuvant 1.5% w/v
  mean % damage 1 daa Stellaria media: 0%
  mean % damage 7 daa Stellaria media: 0%
  mean % damage 14 daa Stellaria media: 5%
Stellaria media [2]; adjuvant 2% w/v
  mean % damage 1 daa Stellaria media: 0%
  mean % damage 7 daa Stellaria media: 5%
  mean % damage 14 daa Stellaria media: 0%
Stellaria media [2]; adjuvant 2.5% w/v
  mean % damage 1 daa Stellaria media: 0%
  mean % damage 7 daa Stellaria media: 0%
  mean % damage 14 daa Stellaria media: 10%
Veronica persica; adjuvant 1% w/v
  mean % damage 1 daa Veronica persica: 0%
  mean % damage 7 daa Veronica persica: 5%
  mean % damage 14 daa Veronica persica: 10%
Veronica persica; adjuvant 1.5% w/v
  mean % damage 1 daa Veronica persica: 0%
  mean % damage 7 daa Veronica persica: 0%
  mean % damage 14 daa Veronica persica: 10%
Veronica persica; adjuvant 2% w/v
  mean % damage 1 daa Veronica persica: 0%
  mean % damage 7 daa Veronica persica: 0%
  mean % damage 14 daa Veronica persica: 0%
Veronica persica; adjuvant 2.5% w/v
  mean % damage 1 daa Veronica persica: 0%
  mean % damage 7 daa Veronica persica: 5%
  mean % damage 14 daa Veronica persica: 0%
Trifolium repens; adjuvant 1% w/v
  mean % damage 1 daa Trifolium repens: 0%
  mean % damage 7 daa Trifolium repens: 0%
  mean % damage 14 daa Trifolium repens: 0%
Trifolium repens; adjuvant 1.5% w/v
  mean % damage 1 daa Trifolium repens: 0%
  mean % damage 7 daa Trifolium repens: 0%
  mean % damage 14 daa Trifolium repens: 0%
Trifolium repens; adjuvant 2% w/v
  mean % damage 1 daa Trifolium repens: 5%
  mean % damage 7 daa Trifolium repens: 0%
  mean % damage 14 daa Trifolium repens: 0%
Trifolium repens; adjuvant 2.5% w/v
  mean % damage 1 daa Trifolium repens: 5%
  mean % damage 7 daa Trifolium repens: 10%
  mean % damage 14 daa Trifolium repens: 10%

## Oleyl alcohol polyglycol ether with 10 moles of ethoxylation [GenapolO100]
Poa annua [3]; adjuvant 1.25% w/v
  avg % damage 1 DAA Poa annua: 0%
  avg % damage 6 DAA Poa annua: 5%
Poa annua [3]; adjuvant 2.5% w/v
  avg % damage 1 DAA Poa annua: 0%
  avg % damage 6 DAA Poa annua: 10%
Poa annua [3]; adjuvant 5% w/v
  avg % damage 1 DAA Poa annua: 0%
  avg % damage 6 DAA Poa annua: 10%
Poa annua [3]; adjuvant 10% w/v
  avg % damage 1 DAA Poa annua: 0%
  avg % damage 6 DAA Poa annua: 10%
Stellaria media [4]; adjuvant 1.25% w/v
  avg % damage 1 DAA Stellaria media: 0%
  avg % damage 6 DAA Stellaria media: 5%
Stellaria media [4]; adjuvant 2.5% w/v
  avg % damage 1 DAA Stellaria media: 5%
  avg % damage 6 DAA Stellaria media: 10%
Stellaria media [4]; adjuvant 5% w/v
  avg % damage 1 DAA Stellaria media: 15%
  avg % damage 6 DAA Stellaria media: 30%
Stellaria media [4]; adjuvant 10% w/v
  avg % damage 1 DAA Stellaria media: 50%
  avg % damage 6 DAA Stellaria media: 55%
Taraxacum officinale; adjuvant 1.25% w/v
  avg % damage 1 DAA Taraxacum officinale: 0%
  avg % damage 6 DAA Taraxacum officinale: 0%
Taraxacum officinale; adjuvant 2.5% w/v
  avg % damage 1 DAA Taraxacum officinale: 5%
  avg % damage 6 DAA Taraxacum officinale: 0%
Taraxacum officinale; adjuvant 5% w/v
  avg % damage 1 DAA Taraxacum officinale: 5%
  avg % damage 6 DAA Taraxacum officinale: 0%
Taraxacum officinale; adjuvant 10% w/v
  avg % damage 1 DAA Taraxacum officinale: 5%
  avg % damage 6 DAA Taraxacum officinale: 0%

## Oleyl alcohol polyglycol ether with 15 moles of ethoxylation [GenapolO150]
Poa annua [3]; adjuvant 1.25% w/v
  avg % damage 1 DAA Poa annua: 0%
  avg % damage 6 DAA Poa annua: 0%
Poa annua [3]; adjuvant 2.5% w/v
  avg % damage 1 DAA Poa annua: 0%
  avg % damage 6 DAA Poa annua: 0%
Poa annua [3]; adjuvant 5% w/v
  avg % damage 1 DAA Poa annua: 0%
  avg % damage 6 DAA Poa annua: 0%
Poa annua [3]; adjuvant 10% w/v
  avg % damage 1 DAA Poa annua: 0%
  avg % damage 6 DAA Poa annua: 0%
Stellaria media [4]; adjuvant 1.25% w/v
  avg % damage 1 DAA Stellaria media: 0%
  avg % damage 6 DAA Stellaria media: 5%
Stellaria media [4]; adjuvant 2.5% w/v
  avg % damage 1 DAA Stellaria media: 0%
  avg % damage 6 DAA Stellaria media: 20%
Stellaria media [4]; adjuvant 5% w/v
  avg % damage 1 DAA Stellaria media: 13%
  avg % damage 6 DAA Stellaria media: 30%
Stellaria media [4]; adjuvant 10% w/v
  avg % damage 1 DAA Stellaria media: 43%
  avg % damage 6 DAA Stellaria media: 60%
Taraxacum officinale; adjuvant 1.25% w/v
  avg % damage 1 DAA Taraxacum officinale: 0%
  avg % damage 6 DAA Taraxacum officinale: 3%
Taraxacum officinale; adjuvant 2.5% w/v
  avg % damage 1 DAA Taraxacum officinale: 0%
  avg % damage 6 DAA Taraxacum officinale: 0%
Taraxacum officinale; adjuvant 5% w/v
  avg % damage 1 DAA Taraxacum officinale: 5%
  avg % damage 6 DAA Taraxacum officinale: 3%
Taraxacum officinale; adjuvant 10% w/v
  avg % damage 1 DAA Taraxacum officinale: 5%
  avg % damage 6 DAA Taraxacum officinale: 3%
